Laboratory results from US20240408085A1, “COMPOUND FOR DEGRADATION OF BCL-2 FAMILY PROTEINS AND MEDICAL APPLICATION THEREOF” (XIZANG HAISCO PHARMACEUTICAL CO., LTD., priority 2021, published 2024).

Assays:
MOLT-4 xenograft tumors = test: Growth inhibition experiment in MOLT-4 xenograft tumor models in mice; format: in vivo; details: two-way ANOVA and then Dunnett's test, FIG. 1
Experimental: MOLT-4 cells are acute lymphoblastic leukemia cell lines in humans. The cells were purchased from ATCC and cultured in RPMI-1640+10% FBS+1% o penicillin-streptomycin solution in a 37° C., 5% CO2 incubator. When the cells were in the exponential growth phase, the cells were harvested and counted. An equal volume of matrigel was added. Female SCID Beige mice (4-6 weeks old, 14-16 g, Beijing Vital River Laboratory Animal Technology Co., Ltd.) were inoculated subcutaneously in the right flank with the cells (200 μL, containing 1×10^7 MOLT-4 cells and 50% matrigel). When the tumor volume reached 150-200 mm^3, the mice were randomly grouped for administration according to the tumor volume and body weight of the mice. Three administration dosages were provided: 5 mpk, 15 mpk and 50 mpk. The compounds were injected intraperitoneally (ip) weekly (qw). The mice in all the experimental groups (10 mice in each group) were continuously administered for 4 weeks.
After inoculation, the body weights of the mice were measured three times a week and the long (a) and short (b) diameters of the tumors were measured. The tumor volume was calculated according to the formula: V=ab^2/2. At day 28 after the administration, the experiment was terminated.

platelet (PLT) = test: Effect on platelet (PLT) after single intravenous injection; format: in vivo, SD rats; design: key to Effect on PLT (↓ decrease): — represents that no significant change was observed; details: for platelet toxicity relative to the control compound: rats
Experimental: Experimental animal: 78 SD rats, with an equal number of males and females, male (♂): 290-380 g, female (♀): 220-290 g, 8-10 weeks old, purchased from Zhejiang Vital River Laboratory Animal Technology Co., Ltd.
Experimental protocol: a clear solution was formulated using a vehicle ([…]). The animals were dosed via tail vein a single time (administration volume: 20 mL/kg; bolus injection period: about 4 minutes; recovery period: 7 days).

BCL-xL proteins = target: T1, BCL-xL proteins (Homo sapiens, UniProt Q07817); test: BCL-xL degradation activity in MOLT-4 cells (western blot, 16 h); format: cell-based
T1 construct: degradation effect on the BCL-xL proteins in MOLT-4 cells; host or cells: MOLT-4
Experimental: MOLT-4 cells are acute lymphoblastic leukemia cell lines in humans. The cells were purchased from ATCC. Culture conditions: RPMI-1640+10% FBS+1% penicillin-streptomycin solution. The cells were cultured in a 37° C., 5% CO2 incubator. The cells were plated in a 12-well plate, with 2×10^5 cells/well. After plating, compounds at different concentrations were added and cultured in a 37° C., 5% CO2 incubator for 16 h. After the completion of culture, the cells were harvested and RIPA lysis buffer (beyotime, Cat. P0013B) was added. The cells were lysed on ice for 15 minutes and centrifuged at 12000 rpm at 4° C. for 10 minutes. The supernatant protein samples were collected and the protein was quantified by using the BCA kit (Beyotime, Cat. P0009). Then the protein was diluted to 0.8 mg/mL. The expressions of BCL-xL (CST, Cat. 2764S), BCL-2 (CST, Cat. 15071S) and the internal reference β-actin (CST, Cat. 3700S) were detected using a fully automated western blot quantitative analyzer (Proteinsimple). The expression level of BCL-xL or BCL-2 relative to the internal reference was calculated by using Compass software, and the DC50 value was calculated by using GraphPad Prism 8.0 software according to formula (1), wherein the Proteinadministration denoted the relative expression level of BCL-xL or BCL-2 in administration groups at different doses, and the Proteinvehicle denoted the relative expression level of BCL-xL or BCL-2 in the vehicle control group.
Protein %=Proteinadministration/Proteinvehicle×100% formula (1)

[1] = Pharmacokinetic test in monkeys (intravenous); format: in vivo; details: male, cynomolgus monkey, i.v. 2 mg/kg, plasma
Experimental: Experimental animals: male cynomolgus monkeys, 3-5 kg, 3-6 years old, 2 monkeys/compound. Purchased from Suzhou Xishan Biotechnology Inc.
Experimental method: on the day of the test, 2 monkeys were randomly grouped according to their body weights. The animals were fasted with water available for 14 to 18 h one day before the administration of a test compound, and were fed 4 hours after the administration.
Before and after the administration, 1.0 mL of blood samples were drawn from the limb veins and placed in an EDTAK2 centrifuge tube. Centrifugation was carried out at 5000 rpm at 4° C. for 10 min, and the plasma was collected. Blood collection time points for the intravenous group were: 0, 5 min, 15 min, 30 min, 1 h, 2 h, 4 h, 6 h, 8 h, 10 h, 12 h, 24 h, and 48 h. Before analysis and detection, all samples were stored at −80° C., and a quantitative analysis of samples was performed using LC-MS/MS.

T1 sequence (Q07817 whole entry): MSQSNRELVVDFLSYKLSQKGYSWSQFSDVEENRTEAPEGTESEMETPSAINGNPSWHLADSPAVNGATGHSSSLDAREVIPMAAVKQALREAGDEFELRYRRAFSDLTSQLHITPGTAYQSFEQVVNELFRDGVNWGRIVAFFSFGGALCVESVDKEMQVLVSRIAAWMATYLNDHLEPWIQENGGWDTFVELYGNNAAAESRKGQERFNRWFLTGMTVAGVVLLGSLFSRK

SMILES: Cc1ncsc1-c1ccc([C@H](C)NC(=O)[C@@H]2C[C@@H](O)CN2C(=O)[C@@H](NC(=O)CCCCCC(=O)N2CCN(CC[C@H](CSc3ccccc3)Nc3ccc(S(=O)(=O)NC(=O)c4ccc(N5CCN(CC6=C(c7ccc(Cl)cc7)CCCCC6)CC5)cc4)cc3S(=O)(=O)C(F)(F)F)CC2)C(C)(C)C)cc1 [Compound 6, (2S,4R)-1-((S)-2-(7-(4-((R)-3-((4-(N-(4-(4-((2-(4-chlorophenyl)cyclohept-1-en-1-yl)methyl)piperazin-1-yl)benzoyl)sulfamoyl)-2-((trifluoromethyl)sulfonyl)phenyl)amino)-4-(phenylthio)butyl)piperazin-1-yl)-7-oxoheptanamido)-3,3-dimethylbutanoyl)-4-hydroxy-N—((S)-1-(4-(4-methylthiazol-5-yl)phenyl)ethyl)pyrrolidine-2-carboxamide]
- growth inhibition on MOLT-4 xenograft tumor models, P versus the vehicle control group (MOLT-4 xenograft tumors): < 0.0001
- Effect on PLT (↓ decrease) (platelet (PLT); SD rats ♀, 6 mg/kg single i.v., 4 h): —
- Effect on PLT (↓ decrease) (platelet (PLT); SD rats ♀, 6 mg/kg single i.v., D2): ↓60%
- Effect on PLT (↓ decrease) (platelet (PLT); SD rats ♀, 20 mg/kg single i.v., 4 h): ↓61%
- Effect on PLT (↓ decrease) (platelet (PLT); SD rats ♀, 20 mg/kg single i.v., D2): ↓84%
- Effect on PLT (↓ decrease) (platelet (PLT); SD rats ♀, 60 mg/kg single i.v., D8): ↓53%
- Effect on PLT (↓ decrease) (platelet (PLT); SD rats ♂, 6 mg/kg single i.v., 4 h): ↓16%
- Effect on PLT (↓ decrease) (platelet (PLT); SD rats ♂, 6 mg/kg single i.v., D2): ↓56%
- Effect on PLT (↓ decrease) (platelet (PLT); SD rats ♂, 20 mg/kg single i.v., 4 h): ↓51%
- Effect on PLT (↓ decrease) (platelet (PLT); SD rats ♂, 20 mg/kg single i.v., D2): ↓71%
- Effect on PLT (↓ decrease) (platelet (PLT); SD rats ♂, 60 mg/kg single i.v., D8): ↓17%
- platelet toxicity relative to the control compound (platelet (PLT); 6 mg/kg and 20 mg/kg single i.v., 4 h and D2): less platelet toxicity
- platelet toxicity relative to the control compound (platelet (PLT); 60 mg/kg single i.v., D8): less platelet toxicity
- DC50 (BCL-xL proteins): 8.4 nM
- AUC(0-t) [1]: 54600 ± 5910 ng·h/mL
- half-life [1]: 9.83 ± 2.2 h
